Reference: patent US20050032646A1, “Agents for the regulation of gametophytic self-incompatibility and a control method for the breakdown of gametophytic self-incompatibility using the agents” (priority 2002, published 2005)
Blank lines part the entries; values can stand above or below the compound they belong to.

Columns and labels:
[1] = system: style-specific S RNase of Fuji apple; experiment: Inhibition of the activity of a style-specific S RNase by the agents; type: biochemical; conditions: optical density at 260 nm (A260), agent 2.0 mM, no treatment 1.10
Experimental: Inhibition of S RNase activity by an agent of the present invention was measured as follows: The standard solution of 500 μL of 10 mM sodium phosphate (pH 7.0) with an agent (2.0 mM), and 500 μL of torula yeast rRNA (5 mg/mL) was pre-incubated for 10 min at 37° C. To the substrate solution, the 20 μL of the style-specific S RNase (200 ng) of Fuji apple was added, then the solution was incubated for 30 min at 37° C. A fraction of 200 μL was collected and 40 μL of stop buffer (ice-cold 25% HCIO4, 0.75% uranyl acetate) was added, then mixed and centrifuged at 12,000 rpm for 5 min. And 50 μL of the supernatant was diluted with 950 μL of dd H2O, then the solution was centrifuged and measured the optical density at 260 nm (A260) (Singh A. et al., Plant Physilolgy, 96: 61-68,1991).

Lycopersicon peruvianum = experiment: Breakdown of the self-incompatibility in Lycopersicon peruvianum (fruition rate, greenhouse); type: in vivo
Experimental: To verify the inhibition of a style-specific S RNase and the suppression of SI system with an agent of the present invention in a practical cultivating Environment, a wild-type tomato (Lycopersicon peruvianum) which has a gametophytic SI system was cultivated in a greenhouse at genetically insulated environment and was treated with an S RNase inhibitor of the present invention.
To determine the treatment period of an S RNase inhibitor, the inhibitor was applied to flowers either at the early blooming period (budding formation period to full blooming), or the middle blooming period (full blooming), or the late blooming period (1 day after full blooming period of petal), respectively. Each inhibitors in 0.1 mM aqueous solution (except the ZnSO4 (1 mM) and CuSO4 (1.0 mM) solution) was treated enough to get-wet flowers ith a micro-spray at 9:00-11:00 AM when the pollination of plant occurs most actively. The experiment with 25 blooming flowers (organ containing a stamen, a stigma, a petal, etc.) was repeated 4 times and the fruition rate ws investigated and the results are shown in Table 2.

20-Century pear = experiment: Breakdown of the self-incompatibility in 20-century pear (fertilization rate, field); type: in vivo; conditions: 600 μM, sprayed 5 and 2 days before full bloom, 14 days after the treatment
Experimental: In a field test, 20-Century pear (the Rosaceae) which has self-incompatibility system was isolated single-genetically by covering up selected branches or whole plants with a fine-meshed net to exclude any pollinating insects. The aqueous of 600 μM solution of an agent of the present invention was treated enough to get-wet flowers with a micro-spray at 9:00-11:00 AM. The agent solution was micro-sprayed 2 times; first at 5 days before full bloom and second at 2 days before full bloom. The reference was artificial cross-pollination at full bloom. The fertilization rate was investigated 14 days after the treatment and compared with no treatment and artificial cross-pollination.

Hongro apple flowers = experiment: Side-effect of the agents toward Hongro apple flowers; type: in vivo; parameters: key: 0: no side-effect is observed, and it is same as no treatment of the agents; 1: the side-effect are observed in flowers, but they recover to normal fruition in a week; 2: a fall-out of flowers and 10% decrease in fruition rate; 3: about 40% loss; 4: 60% loss; 5: a severe loss in fruition
Experimental: To investigate the side-effect of the agent, various concentrations of the agents were treated to the flowers of Hongro apple.

Safinia purple = experiment: Breakdown of self-incompatibility and seed production of Safinia purple; type: in vivo, Safinia purple (petunia)
Experimental: To establish the application method of the SI suppressing agent for the seed production, a field experiment was performed with Safinia purple ( the Solanaceae, a petunia developed by Suntory Ltd).
To a 15 cm-radii round pot, were added fine soil (pH 5.6) and 2 gr of complex fertilizer (including N, P, K 8% each) and they were mixed well. Safinia purple of 10 cm height were planted and raised in a green house for 2 weeks. At the period of 30 % bloom the diluted aqueous solutions of Zn(II) propionate or Cu(II) propionate agent were micro-sprayed enough to wet a flower and a style(3 ml). Two days after treatment of the agent, self-pollen was pollinated to its own style and the seed production was investigated. The experiments were repeated twice.

Hongro apple = experiment: Breakdown of the self-incompatibility in Hongro apple (self-pollination rate, field); type: in vivo; conditions: 25 days after the treatment
Experimental: In the field application experiment, Hongro apple (the Rosaceae) which has a very low self-pollination rate (<5%) was isolated single-genetically by covering up whole plants with a fine-meshed net to exclude any pollinating insects. The agent of the present invention was treated enough to get-wet flowers at various concentrations with a micro-spray at 9:00-11:00 AM. The target of the agent was the first-blooming primary apple flower. The self-pollination rate was investigated 25 days after the treatment and compared with no treatment and artificial cross-pollination.

[2] = agent 0.1 mM, treated 1 day after full blooming
[3] = agent 0.1 mM, treated 1 day before full blooming
[4] = agent 0.1 mM, treated 2 days after full blooming
[5] = agent 0.1 mM, treated 2 days before full blooming
[6] = agent 0.1 mM, treated 3 days before full blooming
[7] = agent 0.1 mM, treated 4 days before full blooming
[8] = agent 0.1 mM, treated 5 days before full blooming
[9] = agent 0.1 mM, treated 6 days before full blooming
[10] = agent 0.1 mM, treated 7 days before full blooming
[11] = agent 0.1 mM, treated at full blooming (0 day)
[12] = agent 1.0 mM, treated 1 day after full blooming
[13] = agent 1.0 mM, treated 1 day before full blooming
[14] = agent 1.0 mM, treated 2 days after full blooming
[15] = agent 1.0 mM, treated 2 days before full blooming
[16] = agent 1.0 mM, treated 3 days before full blooming
[17] = agent 1.0 mM, treated 4 days before full blooming
[18] = agent 1.0 mM, treated 5 days before full blooming
[19] = agent 1.0 mM, treated 6 days before full blooming
[20] = agent 1.0 mM, treated 7 days before full blooming
[21] = agent 1.0 mM, treated at full blooming (0 day)

OD (2.0 mM) [1]: 0.62
SMILES: COCCOCCOCC(=O)[O-].COCCOCCOCC(=O)[O-].[Zn+2] [Zn(II) 2-(2-methoxyethoxy)ethoxyacetete, Zn(II) 2-(2-methoxyethoxy) ethoxyacetete]
fruition rate (Lycopersicon peruvianum; [2]): 0%
fruition rate (Lycopersicon peruvianum; [3]): >60%
fruition rate (Lycopersicon peruvianum; [4]): 0%
fruition rate (Lycopersicon peruvianum; [5]): >50%
fruition rate (Lycopersicon peruvianum; [6]): >10%
fruition rate (Lycopersicon peruvianum; [7]): <10%
fruition rate (Lycopersicon peruvianum; [8]): 0%
fruition rate (Lycopersicon peruvianum; [9]): 0%
fruition rate (Lycopersicon peruvianum; [10]): 0%
fruition rate (Lycopersicon peruvianum; [11]): >50%
fertilization rate (20-Century pear): 51%
side-effect index (Hongro apple flowers; 1.0 mM): 0
side-effect index (Hongro apple flowers; 5.0 mM): 0
side-effect index (Hongro apple flowers; 20.0 mM): 1

OD (2.0 mM) [1]: 0.64
SMILES: COCCOCC(=O)[O-].COCCOCC(=O)[O-].[Zn+2] [Zn(II) 2-methoxyethoxyacetate]
fruition rate (Lycopersicon peruvianum; [2]): 0%
fruition rate (Lycopersicon peruvianum; [3]): >60%
fruition rate (Lycopersicon peruvianum; [4]): 0%
fruition rate (Lycopersicon peruvianum; [5]): >50%
fruition rate (Lycopersicon peruvianum; [6]): >10%
fruition rate (Lycopersicon peruvianum; [7]): <10%
fruition rate (Lycopersicon peruvianum; [8]): 0%
fruition rate (Lycopersicon peruvianum; [9]): 0%
fruition rate (Lycopersicon peruvianum; [10]): 0%
fruition rate (Lycopersicon peruvianum; [11]): >40%
fertilization rate (20-Century pear): 53%
side-effect index (Hongro apple flowers; 1.0 mM): 0
side-effect index (Hongro apple flowers; 5.0 mM): 0
side-effect index (Hongro apple flowers; 20.0 mM): 1
self-pollination rate (Hongro apple; concentration 0.01 mM): >10%
self-pollination rate (Hongro apple; concentration 0.03 mM): >40%
self-pollination rate (Hongro apple; concentration 0.10 mM): >60%
self-pollination rate (Hongro apple; concentration 0.30 mM): >60%
self-pollination rate (Hongro apple; concentration 1.0 mM): >60%

OD (2.0 mM) [1]: 0.73
SMILES: O=C([O-])[C@H](O)[C@@H](O)[C@H](O)[C@H](O)CO.O=C([O-])[C@H](O)[C@@H](O)[C@H](O)[C@H](O)CO.[Zn+2] [Zn(II) Gluconate]
fertilization rate (20-Century pear): 48%

OD (2.0 mM) [1]: 0.72
SMILES: O=S(=O)([O-])[O-].[Zn+2] [ZnSO4, reference compound]
fruition rate (Lycopersicon peruvianum; [12]): 0%
fruition rate (Lycopersicon peruvianum; [13]): 0%
fruition rate (Lycopersicon peruvianum; [14]): 0%
fruition rate (Lycopersicon peruvianum; [15]): 0%
fruition rate (Lycopersicon peruvianum; [16]): <5%
fruition rate (Lycopersicon peruvianum; [17]): >5%
fruition rate (Lycopersicon peruvianum; [18]): >5%
fruition rate (Lycopersicon peruvianum; [19]): >10%
fruition rate (Lycopersicon peruvianum; [20]): >10%
fruition rate (Lycopersicon peruvianum; [21]): 0%
side-effect index (Hongro apple flowers; 1.0 mM): 2
side-effect index (Hongro apple flowers; 5.0 mM): 5
side-effect index (Hongro apple flowers; 20.0 mM): 5
self-pollination rate (Hongro apple; concentration 0.01 mM): 0%
self-pollination rate (Hongro apple; concentration 0.03 mM): 0%
self-pollination rate (Hongro apple; concentration 0.10 mM): 0%
self-pollination rate (Hongro apple; concentration 0.30 mM): 0%
self-pollination rate (Hongro apple; concentration 1.0 mM): <10%

Further lines, the compound ahead of its results:

SMILES: COCCOCCOCC(=O)[O-].COCCOCCOCC(=O)[O-].[Cu+2] [Cu(II) 2-(2-methoxyethoxy)ethoxyacetete, Cu(II) 2-(2-methoxyethoxy) ethoxyacetete]
OD (2.0 mM) [1]: 0.63
fruition rate (Lycopersicon peruvianum; [2]): 0%
fruition rate (Lycopersicon peruvianum; [3]): >60%
fruition rate (Lycopersicon peruvianum; [4]): 0%
fruition rate (Lycopersicon peruvianum; [5]): >50%
fruition rate (Lycopersicon peruvianum; [6]): >10%
fruition rate (Lycopersicon peruvianum; [7]): <10%
fruition rate (Lycopersicon peruvianum; [8]): 0%
fruition rate (Lycopersicon peruvianum; [9]): 0%
fruition rate (Lycopersicon peruvianum; [10]): 0%
fruition rate (Lycopersicon peruvianum; [11]): >50%
fertilization rate (20-Century pear): 53%
side-effect index (Hongro apple flowers; 1.0 mM): 0
side-effect index (Hongro apple flowers; 5.0 mM): 0
side-effect index (Hongro apple flowers; 20.0 mM): 1

SMILES: COCCOCC(=O)[O-].COCCOCC(=O)[O-].[Cu+2] [Cu(II) 2-methoxyethoxyacetate]
OD (2.0 mM) [1]: 0.65
fruition rate (Lycopersicon peruvianum; [2]): 0%
fruition rate (Lycopersicon peruvianum; [3]): >50%
fruition rate (Lycopersicon peruvianum; [4]): 0%
fruition rate (Lycopersicon peruvianum; [5]): >40%
fruition rate (Lycopersicon peruvianum; [6]): >10%
fruition rate (Lycopersicon peruvianum; [7]): <10%
fruition rate (Lycopersicon peruvianum; [8]): 0%
fruition rate (Lycopersicon peruvianum; [9]): 0%
fruition rate (Lycopersicon peruvianum; [10]): 0%
fruition rate (Lycopersicon peruvianum; [11]): >40%
fertilization rate (20-Century pear): 58%
side-effect index (Hongro apple flowers; 1.0 mM): 0
side-effect index (Hongro apple flowers; 5.0 mM): 0
side-effect index (Hongro apple flowers; 20.0 mM): 2

SMILES: O=C([O-])[C@H](O)[C@@H](O)[C@H](O)[C@H](O)CO.O=C([O-])[C@H](O)[C@@H](O)[C@H](O)[C@H](O)CO.[Cu+2] [Cu(II) Gluconate]
OD (2.0 mM) [1]: 0.70
fertilization rate (20-Century pear): 51%

SMILES: CCC(=O)[O-].CCC(=O)[O-].[Cu+2] [Cu(II) Propionate]
OD (2.0 mM) [1]: 0.73
seed production relative (%) to control (Safinia purple; concn 10 μM): 485.7%
self-pollination pollination ratio (%) (Safinia purple; concn 10 μM): 47.6%
self-pollination relative (%) to control (Safinia purple; concn 10 μM): 2000%
seed production relative (%) to control (Safinia purple; concn 30 μM): 1714.3%
self-pollination pollination ratio (%) (Safinia purple; concn 30 μM): 52.1%
self-pollination relative (%) to control (Safinia purple; concn 30 μM): 2500%
seed production relative (%) to control (Safinia purple; concn 100 μM): 2228.6%
self-pollination pollination ratio (%) (Safinia purple; concn 100 μM): 82.6%
self-pollination relative (%) to control (Safinia purple; concn 100 μM): 3800%
seed production relative (%) to control (Safinia purple; concn 300 μM): 1471.4%
self-pollination pollination ratio (%) (Safinia purple; concn 300 μM): 74.3%
self-pollination relative (%) to control (Safinia purple; concn 300 μM): 2600%
seed production relative (%) to control (Safinia purple; concn 1000 μM): 2342.9%
self-pollination pollination ratio (%) (Safinia purple; concn 1000 μM): 76.2%
self-pollination relative (%) to control (Safinia purple; concn 1000 μM): 3200%
fertilization rate (20-Century pear): 53%
side-effect index (Hongro apple flowers; 1.0 mM): 0
side-effect index (Hongro apple flowers; 5.0 mM): 0
side-effect index (Hongro apple flowers; 20.0 mM): 1

SMILES: O=S(=O)([O-])[O-].[Cu+2] [CuSO4, reference compound]
OD (2.0 mM) [1]: 0.70
fruition rate (Lycopersicon peruvianum; [12]): 0%
fruition rate (Lycopersicon peruvianum; [13]): 0%
fruition rate (Lycopersicon peruvianum; [14]): 0%
fruition rate (Lycopersicon peruvianum; [15]): 0%
fruition rate (Lycopersicon peruvianum; [16]): <5%
fruition rate (Lycopersicon peruvianum; [17]): <5%
fruition rate (Lycopersicon peruvianum; [18]): >10%
fruition rate (Lycopersicon peruvianum; [19]): >10%
fruition rate (Lycopersicon peruvianum; [20]): >10%
fruition rate (Lycopersicon peruvianum; [21]): 0%
side-effect index (Hongro apple flowers; 1.0 mM): 3
side-effect index (Hongro apple flowers; 5.0 mM): 5
side-effect index (Hongro apple flowers; 20.0 mM): 5
self-pollination rate (Hongro apple; concentration 0.01 mM): 0%
self-pollination rate (Hongro apple; concentration 0.03 mM): 0%
self-pollination rate (Hongro apple; concentration 0.10 mM): 0%
self-pollination rate (Hongro apple; concentration 0.30 mM): 0%
self-pollination rate (Hongro apple; concentration 1.0 mM): <10%
